Measured values as given in publication PMC7247319, “The mitochondria-targeted peptide SS-31 binds lipid bilayers and modulates surface electrostatics as a key component of its mechanism of action” (The Journal of Biological Chemistry, 2020).
Where a SMILES comes first, the peptide text is derived from it. [ ]: non-standard residue; d: D form. Dmt = Cc1cc(O)cc(C)c1C[C@H](N)C(=O)O

Tested on: LUVs containing 20 mol % TOCL or POPG
Experiment: Zeta potential measurements of LUVs with increasing peptide
Details: LUVs 100 μM total lipid, n = 3
Method: Figure 3. SS-31 binding and surface electrostatics. A, binding isotherms. Peptide was titrated with LUVs of the indicated composition (20% TOCL, [SS-31] = 7.5 μM and 20% POPG, [SS-31] = 3.8 μM) at 30-nmol total lipid increments in the presence of different concentrations of added KCl. Values shown are means ± S.D. (error bars) (n = 3), and lines show data fits based on Equation S3. […] B and C, effect of SS-31 binding on surface charge. Measurements of ζ (B) and ANS fluorescence (C) are shown as a function of [SS-31]/[lipid]^eff for membranes containing 20% TOCL and 20% POPG as indicated. Values shown are means ± S.D. (error bars) (n = 3).
To continue this analysis, we determined the relationship between SS-31 binding and surface electrostatics by two complementary approaches. We first performed zeta potential (ζ) measurements of LUVs containing 20 mol % TOCL or POPG with increasing [SS-31] (Fig. 3B). […] As an independent technique, we measured the effect of SS-31 on surface electrostatics using 1-anilinonaphthalene-8-sulfonic acid (ANS), a fluorescent reporter whose binding to anionic bilayers increases as the magnitude of the ψs is reduced, measured as an increase in probe emission intensity ([42]) (Fig. 3C and Fig. S9D). […]

For Cc1cc(O)cc(C)c1C[C@H](NC(=O)[C@H](N)CCCNC(=N)N)C(=O)N[C@@H](CCCCN)C(=O)N[C@@H](Cc1ccccc1)C(N)=O [SS-31, D-Arg-2′6′-dimethyl-Tyr-Lys-Phe-NH2] (H-[dR][Dmt]KF-NH2), the “zeta potential (ζ) at saturation with increasing peptide” value was ~−30 mV.
